Test results: ChEMBL document CHEMBL1142781, “Chemical modification of the naphthoyl 3-position of JWH-015: in search of a fluorescent probe to the cannabinoid CB2 receptor” (Bioorg Med Chem Lett, 2005)

How the values were obtained:
Cannabinoid receptor 2 [1] = molecular target: T1, Cannabinoid receptor 2 (Homo sapiens, UniProt P34972); assay: In vitro inhibitory activity towards human cannabinoid receptors 2 using fluorescence assay
Cannabinoid receptor 2 [2] = molecular target: T1, Cannabinoid receptor 2; assay: Percentage ([35S]GTP-gamma-S binding was determined from basal towards human cannabinoid receptor 2 at 1 uM concentration […]; type: functional
Cannabinoid receptor 2 [3] = molecular target: T1, Cannabinoid receptor 2; assay: In vitro inhibitory activity towards human cannabinoid receptors 2 using fluorescence assay at 10 uM concentration; parameters: scale not given: the % may be the effect or the level left

T1 sequence (P34972 whole entry): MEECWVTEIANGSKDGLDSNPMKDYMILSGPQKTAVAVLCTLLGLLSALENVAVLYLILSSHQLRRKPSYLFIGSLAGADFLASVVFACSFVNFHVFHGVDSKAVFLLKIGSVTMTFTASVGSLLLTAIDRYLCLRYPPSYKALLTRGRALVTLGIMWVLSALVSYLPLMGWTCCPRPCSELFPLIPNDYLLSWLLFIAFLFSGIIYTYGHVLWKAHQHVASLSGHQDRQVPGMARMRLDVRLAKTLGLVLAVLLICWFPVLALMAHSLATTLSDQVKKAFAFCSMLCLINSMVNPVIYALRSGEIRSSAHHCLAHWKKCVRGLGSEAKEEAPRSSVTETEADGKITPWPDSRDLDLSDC

Question: `CCCn1c(C)c(C(=O)c2cc(NC(=O)CN)cc3ccccc23)c2ccccc21` was tested. Which Ki (Cannabinoid receptor 2 [1]) did it give?
Answer: 420 nM

Question: How did the Activity (Cannabinoid receptor 2 [2]) turn out when `CCCn1c(C)c(C(=O)c2cccc3ccccc23)c2ccccc21` was run?
Answer: 142%

Question: Which results are given for `CCCn1c(C)c(C(=O)c2cc([N+](=O)[O-])cc3ccccc23)c2ccccc21`?
Answer: Ki (Cannabinoid receptor 2 [1]): 143 nM; Activity (Cannabinoid receptor 2 [2]): 134%

Question: What does the source list for `CCCn1c(C)c(C(=O)c2cc(N)cc3ccccc23)c2ccccc21`?
Answer: Ki (Cannabinoid receptor 2 [1]): 191 nM; Activity (Cannabinoid receptor 2 [2]): 151%

Question: Which Activity (Cannabinoid receptor 2 [3]) does the source give for `CCCn1c(C)c(C(=O)c2cc(NC(=O)CNc3ccc([N+](=O)[O-])c4nonc34)cc3ccccc23)c2ccccc21` here?
Answer: 25%
